From patent US9999619B2, “Piperidin-4-yl azetidine derivatives as JAK1 inhibitors” (Incyte Corporation, priority 2010, dated 2018)
Structures can show the parent of a compound that is named as a salt.

Assays:
Format in all cases: biochemical
[1] = target: human JAK1 (a.a. 837-1142) (Homo sapiens, UniProt P23458); assay: In vitro JAK kinase assay (HTRF, phosphorylation of a biotinylated peptide), JAK1; conditions: measured at 1 mM ATP
Summary of the method: (§1)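 Phosphorylation of a biotinylated peptide by purified His-tagged JAK catalytic domains (insect-cell baculovirus expression) ran 1 hr at room temperature. After stopping with EDTA, Eu-Py20 and SA-APC were bound for 40 minutes and HTRF measured.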

[2] = target: human JAK1 (a.a. 837-1142); assay: as above; conditions: ratio of JAK2 IC50 to JAK1 IC50, measured at 1 mM ATP
Summary of the method: as §1

Jak2 (a.a. 828-1132) = Jak2 (a.a. 828-1132) (Homo sapiens (Human), UniProt O60674); assay: In vitro JAK kinase assay (HTRF, phosphorylation of a biotinylated peptide), JAK2; conditions: measured at 1 mM ATP
Chain of Jak2 (a.a. 828-1132) (O60674 828-1132): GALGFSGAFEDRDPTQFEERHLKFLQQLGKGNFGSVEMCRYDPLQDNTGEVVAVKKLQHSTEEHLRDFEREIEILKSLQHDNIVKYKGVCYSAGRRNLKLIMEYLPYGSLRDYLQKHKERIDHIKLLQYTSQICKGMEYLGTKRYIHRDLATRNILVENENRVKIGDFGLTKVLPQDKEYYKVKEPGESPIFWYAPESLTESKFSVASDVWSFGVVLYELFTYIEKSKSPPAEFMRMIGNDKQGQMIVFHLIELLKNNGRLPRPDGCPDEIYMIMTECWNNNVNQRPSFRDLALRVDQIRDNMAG
Summary of the method: as §1

IC50 [1] | IC50 Ratio JAK2/JAK1 [2] | IC50 (Jak2 (a.a. 828-1132)) | Structure (SMILES)
≤ 5 nM | 5.5 | ≤ 10 nM | N#CCC1(n2cc(-c3ncnc4[nH]ccc34)cn2)CN(C2CCN(Cc3c(C(F)(F)F)ccc(Cl)c3F)CC2)C1 [Example 236, {1-{1-[3-chloro-2-fluoro-6-(trifluoromethyl)benzyl]piperidin-4-yl}-3-[4-(7H-pyrrolo[2,3-d]pyrimidin-4-yl)-1H-pyrazol-1-yl]azetidin-3-yl}acetonitrile]
≤ 5 nM | 30.5 | 10 to 50 nM | CCNCc1cc(C(=O)N2CCC(N3CC(CC#N)(n4cc(-c5ncnc6[nH]ccc56)cn4)C3)CC2)nc(C(F)(F)F)n1 [Example 383, {1-(1-{[6-[(ethylamino)methyl]-2-(trifluoromethyl)pyrimidin-4-yl]carbonyl}piperidin-4-yl)-3-[4-(7H-pyrrolo[2,3-d]pyrimidin-4-yl)-1H-pyrazol-1-yl]azetidin-3-yl}acetonitrile]
≤ 5 nM | 7.1 | ≤ 10 nM | N#CCC1(n2cc(-c3ncnc4[nH]ccc34)cn2)CN(C2CCN(C(=O)c3ccc(-c4cccc5cnccc45)c(F)c3)CC2)C1 [Example 130, {1-[1-(3-fluoro-4-isoquinolin-5-ylbenzoyl)piperidin-4-yl]-3-[4-(7H-pyrrolo[2,3-d]pyrimidin-4-yl)-1H-pyrazol-1-yl]azetidin-3-yl}acetonitrile]
≤ 5 nM | 4.6 | 10 to 50 nM | N#CCC1(n2cc(-c3ccnc4[nH]ccc34)cn2)CN(C2CCN(C(=O)c3ccc(O)c(F)c3)CC2)C1 [Example 296, {1-[1-(3-fluoro-4-hydroxybenzoyl)piperidin-4-yl]-3-[4-(1H-pyrrolo[2,3-b]pyridin-4-yl)-1H-pyrazol-1-yl]azetidin-3-yl}acetonitrile]
≤ 5 nM | 4.5 | 10 to 50 nM | N#CCC1(n2cc(-c3c(F)cnc4[nH]ccc34)cn2)CN(C2CCN(C(=O)c3ccc(C#N)cc3F)CC2)C1 [Example 317, 4-[(4-{3-(cyanomethyl)-3-[4-(5-fluoro-1H-pyrrolo[2,3-b]pyridin-4-yl)-1H-pyrazol-1-yl]azetidin-1-yl}piperidin-1-yl)carbonyl]-3-fluorobenzonitrile]
20 to 30 nM | 3.3 | 50 to 100 nM | N#CCC1(n2cc(-c3ccnc4[nH]ccc34)cn2)CN(C2CCN(C(=O)c3cnc(C(F)(F)F)cn3)CC2)C1 [Example 301, [3-[4-(1H-pyrrolo[2,3-b]pyridin-4-yl)-1H-pyrazol-1-yl]-1-(1-{[5-(trifluoromethyl)pyrazin-2-yl]carbonyl}piperidin-4-yl)azetidin-3-yl]acetonitrile]
≤ 5 nM | 15.5 | 10 to 50 nM | N#CCC1(n2cc(-c3ncnc4[nH]ccc34)cn2)CN(C2C3COCC2CN(C(=O)c2ccnc(C(F)(F)F)c2F)C3)C1 (stereo not drawn) [Example 365, {1-{7-[3-Fluoro-2-(trifluoromethyl)isonicotinoyl]-3-oxa-7-azabicyclo[3.3.1]non-9-yl}-3-[4-(7H-pyrrolo[2,3-d]pyrimidin-4-yl)-1H-pyrazol-1-yl]azetidin-3-yl}acetonitrile]
5 to 20 nM | 20.8 | > 100 nM | N#CCC1(n2ccc(-c3ncnc4[nH]ccc34)c2)CN(C2CCN(C(=O)c3ccnc(C(F)(F)F)c3F)CC2)C1 [Example 261, {1-{1-[3-Fluoro-2-(trifluoromethyl)isonicotinoyl]piperidin-4-yl}-3-[3-(7H-pyrrolo[2,3-d]pyrimidin-4-yl)-1H-pyrrol-1-yl]azetidin-3-yl}acetonitrile]
5 to 20 nM | 2.2 | 10 to 50 nM | N#CCC1(n2cc(-c3ncnc4[nH]ccc34)cn2)CN(C2CCN(C(=O)C3CCc4ccccc4C3)CC2)C1 (stereo not drawn) [Example 97, {3-[4-(7H-pyrrolo[2,3-d]pyrimidin-4-yl)-1H-pyrazol-1-yl]-1-[1-(1,2,3,4-tetrahydronaphthalen-2-ylcarbonyl)piperidin-4-yl]azetidin-3-yl}acetonitrile]
5 to 20 nM | 1.0 | 10 to 50 nM | N#CCC1(n2cc(-c3ncnc4[nH]ccc34)cn2)CN(C2CCN(C(=O)c3cc4ccc(C(F)(F)F)cc4s3)CC2)C1 [Example 94, [3-[4-(7H-pyrrolo[2,3-d]pyrimidin-4-yl)-1H-pyrazol-1-yl]-1-(1-{[6-(trifluoromethyl)-1-benzothien-2-yl]carbonyl}piperidin-4-yl)azetidin-3-yl]acetonitrile]
≤ 5 nM | 19.3 | 50 to 100 nM | N#CCC1(n2cc(-c3c(C#N)cnc4[nH]ccc34)cn2)CN(C2CCN(C(=O)c3ccnc(C(F)(F)F)c3F)CC2)C1 [Example 332, 4-[1-(3-(Cyanomethyl)-1-{1-[3-fluoro-2-(trifluoromethyl)isonicotinoyl]piperidin-4-yl}azetidin-3-yl)-1H-pyrazol-4-yl]-1H-pyrrolo[2,3-b]pyridine-5-carbonitrile]
≤ 5 nM | 2.8 | ≤ 10 nM | N#CCC1(n2cc(-c3ncnc4[nH]ccc34)cn2)CN(C2CCN(C(=O)c3sc4cccc(F)c4c3Cl)CC2)C1 [Example 92, {1-{1-[(3-chloro-4-fluoro-1-benzothien-2-yl)carbonyl]piperidin-4-yl}-3-[4-(7H-pyrrolo[2,3-d]pyrimidin-4-yl)-1H-pyrazol-1-yl]azetidin-3-yl}acetonitrile]
20 to 30 nM | 2.6 | 50 to 100 nM | COc1cccc(F)c1CN1CCC(N2CC(CC#N)(n3cc(-c4ncnc5[nH]ccc45)cn3)C2)CC1 [Example 218, {1-[1-(2-fluoro-6-methoxybenzyl)piperidin-4-yl]-3-[4-(7H-pyrrolo[2,3-d]pyrimidin-4-yl)-1H-pyrazol-1-yl]azetidin-3-yl}acetonitrile]
≤ 5 nM | 9.0 | 10 to 50 nM | N#CCC1(n2cc(-c3ccnc4[nH]ccc34)cn2)CN(C2CCN(C(=O)Nc3ccccc3Cl)CC2)C1 [Example 310, N-(2-chlorophenyl)-4-{3-(cyanomethyl)-3-[4-(1H-pyrrolo[2,3-b]pyridin-4-yl)-1H-pyrazol-1-yl]azetidin-1-yl}piperidine-1-carboxamide]
≤ 5 nM | 0.5 | ≤ 10 nM | N#CCC1(n2cc(-c3ncnc4[nH]ccc34)cn2)CN(C2CCN(C(=O)Nc3nc4ccccc4s3)CC2)C1 [Example 193, N-1,3-benzothiazol-2-yl-4-{3-(cyanomethyl)-3-[4-(7H-pyrrolo[2,3-d]pyrimidin-4-yl)-1H-pyrazol-1-yl]azetidin-1-yl}piperidine-1-carboxamide]
≤ 5 nM | 9.8 | 10 to 50 nM | N#CCC1(n2ccc(-c3ncnc4[nH]ccc34)c2)CN(C2CCN(C(=O)c3ccc(F)c(F)c3)CC2)C1 [Example 277, {1-[1-(3,4-difluorobenzoyl)piperidin-4-yl]-3-[3-(7H-pyrrolo[2,3-d]pyrimidin-4-yl)-1H-pyrrol-1-yl]azetidin-3-yl}acetonitrile]
≤ 5 nM | 3.8 | 10 to 50 nM | COc1c(C(=O)N2CCC(N3CC(CC#N)(n4cc(-c5ncnc6[nH]ccc56)cn4)C3)CC2)csc1Cl [Example 74, {1-{1-[(5-chloro-4-methoxy-3-thienyl)carbonyl]piperidin-4-yl}-3-[4-(7H-pyrrolo[2,3-d]pyrimidin-4-yl)-1H-pyrazol-1-yl]azetidin-3-yl}acetonitrile]
≤ 5 nM | 35.7 | 10 to 50 nM | N#CCC1(n2cc(-c3ncnc4[nH]ccc34)cn2)CN(C2CCN(C(=O)c3cc(CN4CC[C@H](F)C4)nc(C(F)(F)F)n3)CC2)C1 [Example 377, {1-(1-{[6-{[(3S)-3-fluoropyrrolidin-1-yl]methyl}-2-(trifluoromethyl)pyrimidin-4-yl]carbonyl}piperidin-4-yl)-3-[4-(7H-pyrrolo[2,3-d]pyrimidin-4-yl)-1H-pyrazol-1-yl]azetidin-3-yl}acetonitrile (trifluoroacetate salt: 4 TFA)]
≤ 5 nM | 8.3 | 10 to 50 nM | CC(C)COC(=O)N1CCC(N2CC(CC#N)(n3cc(-c4ncnc5[nH]ccc45)cn3)C2)CC1 [Example 390, isobutyl 4-{3-(cyanomethyl)-3-[4-(7H-pyrrolo[2,3-d]pyrimidin-4-yl)-1H-pyrazol-1-yl]azetidin-1-yl}piperidine-1-carboxylate]
5 to 20 nM | 4.5 | 50 to 100 nM | N#CCC1(n2cc(-c3c(F)cnc4[nH]ccc34)cn2)CN(C2CCN(C(=O)Nc3ncccc3C(F)(F)F)CC2)C1 [Example 329, 4-{3-(cyanomethyl)-3-[4-(5-fluoro-1H-pyrrolo[2,3-b]pyridin-4-yl)-1H-pyrazol-1-yl]azetidin-1-yl}-N-[3-(trifluoromethyl)pyridin-2-yl]piperidine-1-carboxamide]

Structure (SMILES) | IC50 [1] | IC50 Ratio JAK2/JAK1 [2] | IC50 (Jak2 (a.a. 828-1132))
N#CCC1(n2cc(-c3ncnc4[nH]ccc34)cn2)CN(C2CC3CCC(C2)N3C(=O)c2ccc(Cl)c(F)c2)C1 (stereo not drawn) [Example 141, {1-[8-(4-chloro-3-fluorobenzoyl)-8-azabicyclo[3.2.1]oct-3-yl]-3-[4-(7H-pyrrolo[2,3-d]pyrimidin-4-yl)-1H-pyrazol-1-yl]azetidin-3-yl}acetonitrile] | ≤ 5 nM | 6.2 | ≤ 10 nM
N#CCC1(n2cc(-c3c(F)cnc4[nH]ccc34)cn2)CN(C2CCN(C(=O)Nc3ccncc3C(F)(F)F)CC2)C1 [Example 331, 4-{3-(cyanomethyl)-3-[4-(5-fluoro-1H-pyrrolo[2,3-b]pyridin-4-yl)-1H-pyrazol-1-yl]azetidin-1-yl}-N-[3-(trifluoromethyl)pyridin-4-yl]piperidine-1-carboxamide] | ≤ 5 nM | 10.8 | 10 to 50 nM
